From article PMC7822874, “Chemoprotective antimalarials identified through quantitative high-throughput screening of Plasmodium blood and liver stage parasites” (Scientific Reports, 2021)
Where “and” joins values, the source holds several entries; their conditions need not be identical. Identical values can stand only once. Like-named read-outs stand apart in the source and are kept apart here.

Assays:
in vitro [1] = details: human, hepg2-a16-cd81egfp cells
[2] = system: Plasmodium falciparum Dd2 asexual blood stage parasites; test: microbe, parasite or virus in culture; parameters: species or system Plasmodium falciparum Dd2 in human erythrocytes; single determination (one 11-point concentration-response curve); details: Plasmodium falciparum, DD2, Erythrocyte, 72 h; read-out: AC50
[3] = system: T1, Plasmodium falciparum Dd2-attB (parental line), asexual blood stages; test: microbe, parasite or virus in culture; parameters: replicate k of 3 (each line is one of three independent assays; the three lines of one compound and parasite line follow each other); details: n = 1; for Individual replicates / Log AC50 (M): 72 h; for AC50: Plasmodium falciparum, DD2, 72 h, read-out: Individual replicates / Log AC50 (converted)
T1 construct: Dd2-attB, the isogenic parental line
Procedure, shortened: (§1)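 Only some compounds were profiled here. Each was assayed three independent times against the Dd2-attB parent and its yeast-DHODH-overexpressing derivative.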

[4] = system: T2, Plasmodium falciparum Dd2-attB-ScDHODH (transgenic line expressing yeast DHODH), asexual blood stages; test: organism not typed; parameters: replicate k of 3 (each line is one of three independent assays; the three lines of one compound and parasite line follow each other)
T2 construct: Dd2-attB-ScDHODH, the transgenic line that expresses yeast DHODH
Procedure, shortened: as §1

[5] = system: P. berghei-ANKA-GFP-LucCON liver stage parasites in HepG2-A16-CD81EGFP cells; test: P. berghei liver stage Pb-Luc assay, Method 1 (UCSD, 1536-well); type: cell-based, Plasmodium berghei; details: for activity at 1 µM / activity at 3 µM: 48 h, average of 2 wells, 1536-well plate; for activity at 1 µM: nominal 1 uM (10 mM stock), […] for 15 mM, 1.2 uM for 12 mM, 2 uM for 20 mM stock; for activity at 3 µM: nominal 3 uM (10 mM stock), 4.5 uM for 15 mM, 3.6 uM for 12 mM, 6 uM for 20 mM stock; as to Pb-Luc signal, 1 uM, repeat 1: reference of the scale not given here; as to Pb-Luc signal, 1 uM, repeat 2: reference of the scale not given here; as to Pb-Luc signal, 1 uM, repeat 3: reference of the scale not given here; as to Pb-Luc signal, 3 uM, repeat 1: reference of the scale not given here; as to Pb-Luc signal, 3 uM, repeat 2: reference of the scale not given here; as to Pb-Luc signal, 3 uM, repeat 3: reference of the scale not given here
HepG2-A16-CD81EGFP cells = details: average of 2 wells, repeat 2
in vitro [6] = details: human, HepG2-A16-CD81EGFP cells, uninfected
[7] = 72 h; n = 1; read-out: Individual replicates / Log AC50 (converted)

Structure (SMILES)	viability at 3 µM (in vitro [1]; % viability) [%]	Individual replicates / Log AC50 (M) [3]	AC50 [3] [µM]	Individual replicates / Log AC50 (M) ([4]; 72 h, n = 1)	AC50 [4, 7] [µM]	other results
N#Cc1ccc(NC(=O)Nc2ccc(Cl)cc2)cc1 [MLS000104525]	77.8					
Oc1c(Cl)cc(Cl)cc1CN1CCN(Cc2ccccc2)CC1 [MLS000106505]						viability at 3 µM (in vitro [1]): 92%
Oc1ccc(Br)cc1CN1CCN(c2ccccc2)CC1 [MLS000106609]						viability at 3 µM (in vitro [1]): 99.8%
CCN(CC)CC(O)COc1ccccc1C(=O)CCc1ccccc1 (stereo not drawn) [MLS000107538]	104					
N#Cc1c2c(c(NCc3ccco3)n3c1nc1ccccc13)CCC2 [MLS000109113]	97.7					
Cc1cc(C)n(-c2nc(NC(C)(C)C)nc(NC(C)(C)C)n2)n1 [MLS000109787]	106					
CCCCOc1ccc(NC2=NC(N)=NC3(CCCCC3)N2)cc1 [MLS000109806]	88.4					
Cc1cc(N2CCC(C)CC2)nc(-n2nc(C)cc2C)n1 [MLS000109839]	98.6					
Cc1cc(Nc2ccc(C(C)C)cc2)n2ncnc2n1 [MLS000116597]	96.1					
Cc1cc(Nc2ccc(Br)c(C)c2)n2nc(C)nc2n1 [MLS000116638]	87.3					
N#Cc1cc(C#N)c(N2CCN(c3cccc(Cl)n3)CC2)nc1N [MLS000325470]	99.6					
CCOc1ccc(-n2c(SCC(N)=O)nc3sc4c(c3c2=O)CCN(C)C4)cc1 [MLS000332254]	95.7					
Oc1ccc(CNc2ccc(C(F)(F)F)cc2Cl)c2cccnc12 [NCGC00183375-01]		-5.2986 Log AC50 (M) and -5.3486 Log AC50 (M)	5.03	-5.2486 Log AC50 (M) and -5.0986 Log AC50 (M)	5.03	AC50 [2]: 10.6 µM
CCCN1C(CC(C)C)=N[S+](=O)([O-])c2cc(NC(=O)c3cccs3)ccc21 [NCGC00473217-01]		-7.2986 Log AC50 (M) and -6.9486 Log AC50 (M) and -6.9986 Log AC50 (M)		-6.2986 Log AC50 (M)	0.71	Max Resp (signal direction of the dose response) ([5]; Method 1, Decrease = decreasing P. berghei viability with dose, Increase = increasing signal, Inactive = no dose response): Decrease; AC50 ([5]; Method 1, Hill fit, 50% of maximum activity response, read-out: AC50): 0.00316 µM; Log AC50 (M) ([5]; Method 1, log10 of molar AC50 from Hill fit): -8.500 M; activity at 1 µM ([5]; Plasmodium berghei, repeat 1, read-out: Pb-Luc signal, 1 uM, repeat 1): 8.62%; activity at 1 µM ([5]; Plasmodium berghei, repeat 2, read-out: Pb-Luc signal, 1 uM, repeat 2): 7.89%; activity at 1 µM ([5]; Plasmodium berghei, repeat 3, read-out: Pb-Luc signal, 1 uM, repeat 3): 4.31%; activity at 3 µM ([5]; Plasmodium berghei, repeat 1, read-out: Pb-Luc signal, 3 uM, repeat 1): 2.42%; activity at 3 µM ([5]; Plasmodium berghei, repeat 2, read-out: Pb-Luc signal, 3 uM, repeat 2): 3.74%; activity at 3 µM ([5]; Plasmodium berghei, repeat 3, read-out: Pb-Luc signal, 3 uM, repeat 3): 3.33%; AC50 ([5]; Plasmodium berghei, Method 1, Hill fit, 50% of maximum activity response, read-out: AC50): 0.00282 µM; AC50 ([5]; Plasmodium berghei, Method 1, log10 of molar AC50 from Hill fit, read-out: Log AC50 (converted)): 0.00282 µM; AC50 [2]: 0.335 µM; HepG2 viability signal, 1 uM, repeat 2 (HepG2-A16-CD81EGFP cells; nominal 1 uM (10 mM stock), […] for 15 mM, 1.2 uM for 12 mM, 2 uM for 20 mM stock): 104.11%; HepG2 viability signal, 3 uM, repeat 2 (HepG2-A16-CD81EGFP cells; nominal 3 uM (10 mM stock), 4.5 uM for 15 mM, 3.6 uM for 12 mM, 6 uM for 20 mM stock): 105.41%; viability at 48 h, 1 µM (in vitro [6]): 105%; viability at 48 h, 3 µM (in vitro [6]): 106%
CC(C)c1c(-c2cnn(C(C)(C)C)c2)[nH]c2c(C#N)cnn2c1=O [NCGC00488278-03]		-4.7486 Log AC50 (M)		-4.8986 Log AC50 (M)		
CC(C)OC(=O)c1ccnc2cc(C(OCCN3CCCCC3)c3cccc(N)c3)sc12 (stereo not drawn) [NCGC00488684-01]		-5.1986 Log AC50 (M) and -5.1486 Log AC50 (M)	7.1	-5.0986 Log AC50 (M)	12.6	
CN1CCC(CNCc2nccc3c(=O)[nH]c(COc4ccc(Cc5ccccc5)cc4)nc23)C1 (stereo not drawn) [NCGC00489856-01]		-4.7986 Log AC50 (M) and -4.8486 Log AC50 (M)	15.9		17.8	
C=CC(=O)Nc1cccc(C(OCCN2CCCCC2)c2cc3nccc(C(=O)OC(C)C)c3s2)c1 (stereo not drawn) [NCGC00493267-01]		-5.1486 Log AC50 (M) and -5.0486 Log AC50 (M)	8.94	-5.0486 Log AC50 (M) and -4.7986 Log AC50 (M)	7.97	
Cc1nn2c(c1-c1ccccc1-c1ccccc1)N(Cc1cccc(C#N)c1)CCC2 [NCGC00499314-01]		-5.1486 Log AC50 (M) and -5.0486 Log AC50 (M)	8.94	-4.9986 Log AC50 (M) and -5.0986 Log AC50 (M)	10	
Cc1cccc(CN2CCCn3nc(C)c(-c4ccccc4OCc4ccccc4)c32)n1 [NCGC00499716-01]		-4.8986 Log AC50 (M) and -4.7486 Log AC50 (M)	15.9	-4.8486 Log AC50 (M)	12.6	
Cc1nn2c(c1-c1ccccc1Oc1ccccc1)N(CCCc1ccccc1)CCC2 [NCGC00499718-01]		-4.7986 Log AC50 (M)	15.9		15.9	Individual replicates / Log AC50 (M) ([4]; 72 h; n = 1): -4.7986 Log AC50 (M)
Cc1cccc(CN2CCCn3nc(C)c(-c4ccccc4Oc4ccccc4)c32)n1 [NCGC00499720-01]		-4.7486 Log AC50 (M)	20	-4.7986 Log AC50 (M)	15.9	
Cc1nn2c(c1-c1ccccc1-c1ccccc1)N(CCCc1ccccc1)CCC2 [NCGC00500005-01]		-5.0486 Log AC50 (M)	7.97	-5.0486 Log AC50 (M) and -4.8986 Log AC50 (M)	8.94	
